Assay results from patent publication US6274715A, “Tricyclic erythromycin derivatives” (priority 1997, dated 2001).
≈ marks a conversion by molar mass, not a printed value.

Tests used:
Format in all cases: cell-based
[1] = tested on: ENTEROBACTER AEROGENES ATCC 13048; assay: In vitro antibacterial activity, MIC, BHI agar dilution; conditions: E. aerogenes ATCC 13048, unit assumed
[2] = tested on: STREPTOCOCCUS BOVIS A-5169; assay: as above; conditions: S. bovis A-5169, unit assumed
[3] = tested on: STAPHYLOCOCCUS AUREUS 1775; assay: as above; conditions: S. aureus 1775, unit assumed
[4] = tested on: PSEUDOMONAS AERUGINOSA 5007; assay: as above; conditions: P. aeruginosa 5007, unit assumed
[5] = tested on: PSEUDOMONAS AERUGINOSA DPHD-2862; assay: as above; conditions: P. aeruginosa DPHD-2862, unit assumed
PSEUDOMONAS CEPACIA 296I = assay: as above; conditions: P. cepacia 296I, unit assumed
ESCHERICHIA COLI H560 = assay: as above; conditions: E. coli H560, unit assumed
[6] = tested on: STREPTOCOCCUS PYOGENES 930; assay: as above; conditions: S. pyogenes 930, unit assumed
[7] = tested on: STAPHYLOCOCCUS AUREUS NCTC10649M; assay: as above; conditions: S. aureus NCTC10649M, unit assumed
ESCHERICHIA COLI KNK 437 = conditions: E. coli KNK 437; BHI agar; unit assumed
[8] = tested on: STAPHYLOCOCCUS AUREUS CMX 642A; assay: In vitro antibacterial activity, MIC, BHI agar dilution; conditions: S. aureus CMX 642A, unit assumed
[9] = tested on: PSEUDOMONAS AERUGINOSA K799/WT; assay: as above; conditions: P. aeruginosa K799/WT, unit assumed
[10] = tested on: PROVIDENCIA STUARTII CMX 640; conditions: P. stuartii CMX 640; BHI agar; unit assumed
[11] = tested on: STAPHYLOCOCCUS AUREUS ATCC 6538P; assay: In vitro antibacterial activity, MIC, BHI agar dilution; conditions: S. aureus ATCC 6538P, 35-37° C., 20 to 24 hours, unit assumed
ESCHERICHIA COLI SS = assay: as above; conditions: E. coli SS, unit assumed
ESCHERICHIA COLI JUHL = conditions: E. coli JUHL; BHI agar; unit assumed
[12] = tested on: PSEUDOMONAS AERUGINOSA K799/61; assay: In vitro antibacterial activity, MIC, BHI agar dilution; conditions: P. aeruginosa K799/61, unit assumed
[13] = tested on: STAPHYLOCOCCUS AUREUS CMX 553; assay: as above; conditions: S. aureus CMX 553, unit assumed
[14] = tested on: STAPHYLOCOCCUS AUREUS A-5278; assay: as above; conditions: S. aureus A-5278, unit assumed
[15] = tested on: ACINETOBACTER CALCOACETICUS CMX 669; assay: as above; conditions: A. calcoaceticus CMX 669, unit assumed
[16] = tested on: MYCOBACTERIUM SMEGMATIS ATCC 114; assay: as above; conditions: M. smegmatis ATCC 114, unit assumed
CANDIDA ALBICANS CCH 442 = assay: as above; conditions: C. albicans CCH 442, unit assumed
[17] = tested on: STAPHYLOCOCCUS EPIDERMIDIS 3519; conditions: S. epidermidis 3519; BHI agar; unit assumed
M[…] ATCC 9341 = assay: In vitro antibacterial activity, MIC, BHI agar dilution; conditions: M. luteus ATCC 9341, unit assumed
In short: (§1)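 Twelve successive aqueous dilutions of compound in Brain Heart Infusion agar were inoculated with 1:100 culture dilutions (1:10 for slow growers such as Micrococcus, Streptococcus) by Steers replicator and incubated at 35-37° C for 20 to 24 hours. MIC was the lowest concentration giving no growth, slight haze or sparse colonies versus drug-free control.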

STR[…] 508 = assay: as above; conditions: S. agalactiae CMX 508, unit assumed
In short: as §1

EN[…] ATCC 8043 = assay: as above; conditions: E. faecium ATCC 8043, unit assumed
In short: as §1

M[…] ATCC 4698 = assay: as above; conditions: M. luteus ATCC 4698, unit assumed
In short: as §1

[18] = tested on: PSEUDOMONAS AERUGINOSA DPHD-5263; assay: as above; conditions: P. aeruginosa DPHD-5263, unit assumed
[19] = tested on: STREPTOCOCCUS PYOGENES EES61; assay: as above; conditions: S. pyogenes EES61, unit assumed
[20] = tested on: STREPTOCOCCUS PYOGENES PIU 2548; assay: as above; conditions: S. pyogenes PIU 2548, unit assumed
[21] = tested on: PSEUDOMONAS AERUGINOSA BMH10; assay: as above; conditions: P. aeruginosa BMH10, unit assumed
ESCHERICHIA COLI DC-2 = assay: as above; conditions: E. coli DC-2, unit assumed
[22] = tested on: KLEBSIELLA PNEUMONIAE ATCC 8045; assay: as above; conditions: K. pneumoniae ATCC 8045, unit assumed

| SMILES | MIC [1] [µg/mL] | MIC [2] [µg/mL] | MIC [3] [µg/mL] | MIC [4] [µg/mL] | MIC [5] [µg/mL] | MIC (PSEUDOMONAS CEPACIA 296I) [µg/mL] | MIC (ESCHERICHIA COLI H560) [µg/mL] | MIC [6] [µg/mL] | MIC [7] [µg/mL] | MIC [8] [µg/mL] | MIC [10] [µg/mL] | MIC [11] [µg/mL] | MIC (ESCHERICHIA COLI JUHL) [µg/mL] | MIC [14] [µg/mL] | MIC [15] [µg/mL] | MIC [16] [µg/mL] | MIC (CANDIDA ALBICANS CCH 442) [µg/mL] | MIC [17] [µg/mL] | MIC (M[…] ATCC 9341) [µg/mL] | MIC [18] [µg/mL] | other results |
| --- | --- | --- | --- | --- | --- | --- | --- | --- | --- | --- | --- | --- | --- | --- | --- | --- | --- | --- | --- | --- | --- |
| CC[C@H]1OC(=O)[C@H](C)C(=O)[C@H](C)[C@@H](O[C@@H]2O[C@H](C)C[C@H](N(C)C)[C@H]2O)[C@](C)(OC)C[C@@H](C)C2=NC[C@H](Cc3ccccc3)N3C(=O)O[C@@]1(C)[C@H]3[C@H]2C [Example 5] | 50 (≈ 68.7 µM) | 0.01 (≈ 0.0137 µM) | > 100 | > 100 | > 100 | 25 (≈ 34.3 µM) | 3.1 (≈ 4.26 µM) | > 100 | 0.2 (≈ 0.275 µM) | 0.2 (≈ 0.275 µM) | > 100 | 0.2 (≈ 0.275 µM) | 12.5 (≈ 17.2 µM) | > 100 | 12.5 (≈ 17.2 µM) | 0.2 (≈ 0.275 µM) | > 100 | 0.2 (≈ 0.275 µM) | 0.05 (≈ 0.0687 µM) | > 100 | MIC (ESCHERICHIA COLI KNK 437): 6.2 µg/mL (≈ 8.52 µM); MIC [9]: 50 µg/mL (≈ 68.7 µM); MIC (ESCHERICHIA COLI SS): 0.39 µg/mL (≈ 0.536 µM); MIC [12]: 0.78 µg/mL (≈ 1.07 µM); MIC [13]: 0.2 µg/mL (≈ 0.275 µM); MIC (STR[…] 508): 0.02 µg/mL (≈ 0.0275 µM); MIC (EN[…] ATCC 8043): 0.05 µg/mL (≈ 0.0687 µM); MIC (M[…] ATCC 4698): 0.2 µg/mL (≈ 0.275 µM); MIC [19]: 0.02 µg/mL (≈ 0.0275 µM); MIC [20]: 0.39 µg/mL (≈ 0.536 µM); MIC [21]: 50 µg/mL (≈ 68.7 µM) |
| CC[C@H]1OC(=O)[C@H](C)C(=O)[C@H](C)[C@@H](O[C@@H]2O[C@H](C)C[C@H](N(C)C)[C@H]2O)[C@](C)(OC)C[C@@H](C)C2=N[C@H](C)[C@H](C)N3C(=O)O[C@@]1(C)[C@H]3[C@H]2C [Example 10] | 50 (≈ 75.1 µM) | 0.05 (≈ 0.0751 µM) | > 100 | > 100 | > 100 | 100 (≈ 150 µM) | 25 (≈ 37.5 µM) | > 100 | 0.39 (≈ 0.586 µM) | 0.39 (≈ 0.586 µM) | > 100 | 0.39 (≈ 0.586 µM) | 25 (≈ 37.5 µM) | > 100 | 25 (≈ 37.5 µM) | 6.2 (≈ 9.31 µM) | > 100 | 0.39 (≈ 0.586 µM) | 0.1 (≈ 0.15 µM) | > 100 | MIC (ESCHERICHIA COLI SS): 0.2 µg/mL (≈ 0.3 µM); MIC [13]: 0.39 µg/mL (≈ 0.586 µM); MIC (ESCHERICHIA COLI DC-2): 25 µg/mL (≈ 37.5 µM); MIC (M[…] ATCC 4698): 0.2 µg/mL (≈ 0.3 µM); MIC [20]: 0.39 µg/mL (≈ 0.586 µM); MIC [21]: > 100 µg/mL |
| CC[C@H]1OC(=O)[C@H](C)C(=O)[C@H](C)[C@@H](O[C@@H]2O[C@H](C)C[C@H](N(C)C)[C@H]2O)[C@](C)(OC)C[C@@H](C)C2=NC[C@@H](CCCc3ccccc3)N3C(=O)O[C@@]1(C)[C@H]3[C@H]2C [Example 36] | 25 (≈ 33.1 µM) | 0.01 (≈ 0.0132 µM) | > 100 | 100 (≈ 132 µM) | 50 (≈ 66.1 µM) | 50 (≈ 66.1 µM) | 25 (≈ 33.1 µM) | 50 (≈ 66.1 µM) | 0.2 (≈ 0.265 µM) | 0.2 (≈ 0.265 µM) | 100 (≈ 132 µM) | 0.2 (≈ 0.265 µM) | 50 (≈ 66.1 µM) | > 100 | 50 (≈ 66.1 µM) | 0.39 (≈ 0.516 µM) | 100 (≈ 132 µM) | 0.2 (≈ 0.265 µM) | 0.05 (≈ 0.0661 µM) | 50 (≈ 66.1 µM) | MIC (ESCHERICHIA COLI KNK 437): 12.5 µg/mL (≈ 16.5 µM); MIC [22]: 50 µg/mL (≈ 66.1 µM); MIC [9]: 50 µg/mL (≈ 66.1 µM); MIC [12]: 1.56 µg/mL (≈ 2.06 µM); MIC (STR[…] 508): 0.05 µg/mL (≈ 0.0661 µM); MIC (EN[…] ATCC 8043): 0.2 µg/mL (≈ 0.265 µM); MIC [20]: 0.39 µg/mL (≈ 0.516 µM); MIC [21]: 50 µg/mL (≈ 66.1 µM) |
